Here are results for 11 molecules from patent US20190336489A1, “NON PEPTIDE HETEROBIVALENT MOLECULES FOR TREATING INFLAMMATORY DISEASES” (GLAXOSMITHKLINE INTELLECTUAL PROPERTY DEVELOPMENT LIMITED, priority 2017, published 2019).

In this assay the target is T1, CCR2 (Homo sapiens, UniProt P41597).
T1 construct: expressed in transfected cells; host or cells: CHOK1
Put plainly: Antibody Dependent Cellular Cytotoxicity (ADCC) reporter assay, CCR2 target cells. The following applies: for ADCC efficacy: maximum signal:background (S/B). The class given is cell-based. The source says:
The compounds described herein have been characterized in an ADCC reporter assay (see Section 1.2 ADCC reporter for protocol). […] Furthermore, the assay also confirms that this formed complex can engage and activate the Fc receptors on immune cells. Lastly, the assay provides both potency (EC50) and efficacy (signal to background ratio) for each compound in a dose dependant manner.
This assay has four components • 1) Heterobivalent Compound consisting of a targeting ligand and a hapten connected by a linker (ranging from 10 uM-1 pM) • 2) A hapten antibody with functional Fc domain (typical concentrations are 0.01 ug/mL-200 ug/mL) • 3) Target cells—CHOK1 cells engineered to overexpress either CCR1, CCR2, or CCR3, or CEMNKR cells engineered to overexpress CCR5 (typically 1000-20,000 cells per well) • 4) Reporter cells—Jurkat cells engineered to express FcgRIIIa (ADCC reporter assay) and with a reporter gene (luciferase) under the control of the NFAT promoter (typically 3000-75,000 cells per well)
Reagents are combined in final volume of 20 uL in 384-well tissue culture treated plated.
All components are incubated together for ˜12-18 hours. Add BioGlo Detection reagent (from Promega) to lyse the cells and provide substrate for the luciferase reporter protein. Signal is measured on a microplate reader capable of measuring luminescence. Signal:Background is calculated by dividing the signal of a test well by the signal obtained when no compound is included in the assay. EC50 calculations were done using Graphpad Prism Software, specifically a nonlinear regression curve fit (Y=Bottom+(Top−Bottom)/(1+10^((Log EC50−X)*HillSlope)))
(In general: A reporter such as luciferase makes a cellular process visible.)

Where [1] appears, read: CHOK1 cells overexpressing CCR2, Jurkat FcgRIIIa NFAT-luciferase reporter cells, EC50 class.
Where [2] appears, read: CHOK1 cells overexpressing CCR2.
Setting [3] is: CHOK1 cells overexpressing CCR2, Jurkat FcgRIIIa NFAT-luciferase reporter cells, EC50 class, read-out: ADCC potency.

SMILES strings stand for the structures. Like-named read-outs stand apart in the source and are kept apart here. Marks after values point to notes of the source that are not given here.

T1 sequence (P41597 whole entry, species assumed): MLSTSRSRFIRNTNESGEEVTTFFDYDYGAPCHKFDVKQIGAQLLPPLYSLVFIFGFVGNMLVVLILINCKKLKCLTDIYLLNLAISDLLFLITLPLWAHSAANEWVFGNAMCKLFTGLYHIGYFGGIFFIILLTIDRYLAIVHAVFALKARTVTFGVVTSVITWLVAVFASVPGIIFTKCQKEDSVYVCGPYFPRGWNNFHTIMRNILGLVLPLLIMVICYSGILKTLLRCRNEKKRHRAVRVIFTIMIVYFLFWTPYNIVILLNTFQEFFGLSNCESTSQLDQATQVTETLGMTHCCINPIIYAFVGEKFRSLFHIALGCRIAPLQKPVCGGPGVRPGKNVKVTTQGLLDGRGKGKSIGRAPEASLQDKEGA

As for `O=C(NCC(=O)N1CC[C@H](NC2CCC(O)(c3ccc(-c4ncccn4)cn3)CC2)C1)c1cc(OCCOCCOCCOCCOCCOCCOCCOCCOCCOCCNc2ccc([N+](=O)[O-])cc2[N+](=O)[O-])cc(C(F)(F)F)c1` (single isomer, unassigned) [Compound 16], under setting [1], the ADCC potency entry was “+++ (pEC50 ≥ 9 = +++)”. Further, the ADCC efficacy entry under setting [2] is on record as “++^e (>5 = ++)”.

For the molecule `O=C(NCC(=O)N1CC[C@H](NC2CCC(O)(c3ccc(-c4ncccn4)cn3)CC2)C1)c1cc(OCCOCCOCCOCCOCCOCCOCCOCCOCCOCCNc2ccc([N+](=O)[O-])cc2[N+](=O)[O-])cc(C(F)(F)F)c1` (single isomer, unassigned) [Compound 17], the ADCC potency result under setting [1] is “+++ (pEC50 ≥ 9 = +++)”. In addition, the ADCC efficacy entry under setting [2] is on record as “+++^e (Maximum Signal:Background > 10 = +++)”.

Regarding `CC(C)(C)N1CCNC(C(=O)N2CCN(C(=O)Nc3ccc(Cl)c(F)c3)C(CCOC(=O)NCCOCCOCCOCCOCCOCCOCCOCCOCCOCCNc3ccc([N+](=O)[O-])cc3[N+](=O)[O-])C2)C1` (single isomer, unassigned) [Compound 19, 2-(4-(4-(Tert-butyl)piperazine-2-carbonyl)-1-((4-chloro-3-fluorophenyl)carbamoyl)piperazin-2-yl)ethyl (29-((2,4-dinitrophenyl)amino)-3,6,9,12,15,18,21,24,27-nonaoxanonacosyl)carbamate], the EC50 under setting [3] is below 1 nM. Besides, the ADCC efficacy entry under setting [2] is reported as “+++^e (Maximum Signal:Background > 10 = +++)”.

On to `CC(C)[C@]1(C(=O)N2CCc3nc(CCCCOc4ccc(C(=O)NCCOCCOCCOCCOCCOCCOCCOCCOCCOCCNc5ccc([N+](=O)[O-])cc5[N+](=O)[O-])cc4)c(C(F)(F)F)cc3C2)CC[C@@H](NC2CCOCC2)C1` [Compound 6, N-(29-((2,4-dinitrophenyl)amino)-3,6,9,12,15,18,21,24,27-nonaoxanonacosyl)-4-(4-(6-((1S,3R)-1-isopropyl-3-((tetrahydro-2H-pyran-4-yl)amino)cyclopentanecarbonyl)-3-(trifluoromethyl)-5,6,7,8-tetrahydro-1,6-naphthyridin-2-yl)butoxy)benzamide], for which the EC50 under setting [3] is below 1 nM. The ADCC efficacy entry under setting [2] is “+++^e (Maximum Signal:Background > 10 = +++)”.

On to `CC(C)[C@]1(C(=O)N2CCc3nc(CCCCOc4cccc(C(=O)NCCOCCOCCOCCOCCOCCOCCOCCOCCOCCNc5ccc([N+](=O)[O-])cc5[N+](=O)[O-])c4)c(C(F)(F)F)cc3C2)CC[C@@H](NC2CCOCC2)C1` [Compound 7, N-(29-((2,4-dinitrophenyl)amino)-3,6,9,12,15,18,21,24,27-nonaoxanonacosyl)-3-(4-(6-((1S,3R)-1-isopropyl-3-((tetrahydro-2H-pyran-4-yl)amino)cyclopentanecarbonyl)-3-(trifluoromethyl)-5,6,7,8-tetrahydro-1,6-naphthyridin-2-yl)butoxy)benzamide], for which, under setting [3], the EC50 is below 1 nM. In addition, the ADCC efficacy result under setting [2] was “+++^e (Maximum Signal:Background > 10 = +++)”.

Regarding `Cc1ccc2c(c1)NC[C@]21CCN(C[C@@H](O)C2CCN(C(=O)c3cc4cc(OCCOCCOCCOCCNC(=O)CCC(=O)NCCOCCOCCOCCNc5ccc([N+](=O)[O-])cc5[N+](=O)[O-])ccc4[nH]3)CC2)C[C@H]1C` [Compound 8, N1-(2-(2-(2-(2-((2-(4-((S)-2-((3S,3′S)-3′,6-Dimethylspiro[indoline-3,4′-piperidin]-1′-yl)-1-hydroxyethyl)piperidine-1-carbonyl)-1H-indol-5-yl)oxy)ethoxy)ethoxy)ethoxy)ethyl)-N4-(2-(2-(2-(2-((2,4-dinitrophenyl)amino)ethoxy)ethoxy)ethoxy)ethyl)succinamide], the EC50 under setting [3] fell in the range of 10 to 100 nM. The ADCC efficacy result under setting [2] is listed as “+++^e (Maximum Signal:Background > 10 = +++)”.

Take `Cc1ccc2c(c1)NC[C@]21CCN(C[C@@H](O)C2CCN(C(=O)/C=C/c3cc(F)cc(OCCOCCOCCOCCOCCOCCOCCOCCOCCOCCNc4ccc([N+](=O)[O-])cc4[N+](=O)[O-])c3)CC2)C[C@H]1C` [Compound 9, (E)-1-(4-((S)-2-((3S,3′S)-3′,6-Dimethylspiro[indoline-3,4′-piperidin]-1′-yl)-1-hydroxyethyl)piperidin-1-yl)-3-(3-((29-((2,4-dinitrophenyl)amino)-3,6,9,12,15,18,21,24,27-nonaoxanonacosyl)oxy)-5-fluorophenyl)prop-2-en-1-one]: the EC50 under setting [3] was below 1 nM. For the same molecule, the ADCC efficacy result under setting [2] is “+++^e (Maximum Signal:Background > 10 = +++)”.

For the molecule `Cc1ccc2c(c1)NC[C@]21CCN(C[C@@H](O)C2CCN(C(=O)c3cc4cc(Oc5ccc(C(=O)NCCOCCOCCOCCOCCOCCOCCOCCOCCOCCNc6ccc([N+](=O)[O-])cc6[N+](=O)[O-])cc5)ccc4[nH]3)CC2)C[C@H]1C` [Compound 10, 4-((2-(4-((S)-2-((3S,3′S)-3′,6-Dimethylspiro[indoline-3,4′-piperidin]-1′-yl)-1-hydroxyethyl)piperidine-1-carbonyl)-1H-indol-5-yl)oxy)-N-(29-((2,4-dinitrophenyl)amino)-3,6,9,12,15,18,21,24,27-nonaoxanonacosyl)benzamide], under setting [3], the EC50 fell in the range of 1 to 10 nM. Moreover, the ADCC efficacy result under setting [2] is on record as “+++^e (Maximum Signal:Background > 10 = +++)”.

With `Cc1ccc2c(c1)NC[C@]21CCN(C[C@@H](O)C2CCN(c3ncc(-c4cccc(C(=O)NCCOCCOCCOCCOCCOCCOCCOCCOCCOCCNc5ccc([N+](=O)[O-])cc5[N+](=O)[O-])c4)o3)CC2)C[C@H]1C` [Compound 11, 3-(2-(4-((S)-2-((3S,3′S)-3′,6-Dimethylspiro[indoline-3,4′-piperidin]-1′-yl)-1-hydroxyethyl)piperidin-1-yl)oxazol-5-yl)-N-(29-((2,4-dinitrophenyl)amino)-3,6,9,12,15,18,21,24,27-nonaoxanonacosyl)benzamide], the EC50 under setting [3] lay within 10 to 100 nM. Moreover, the ADCC efficacy entry under setting [2] is on record as “+++^e (Maximum Signal:Background > 10 = +++)”.

Take `Cc1ccc2c(c1)NC[C@]21CCN(C[C@@H](O)C2CCN(C(=O)c3cc4ccc(Oc5ccc(C(=O)NCCOCCOCCOCCOCCOCCOCCOCCOCCOCCNc6ccc([N+](=O)[O-])cc6[N+](=O)[O-])cc5)cc4[nH]3)CC2)C[C@H]1C` [Compound 12, 4-((2-(4-((S)-2-((3S,3′S)-3′,6-Dimethylspiro[indoline-3,4′-piperidin]-1′-yl)-1-hydroxyethyl)piperidine-1-carbonyl)-1H-indol-6-yl)oxy)-N-(29-((2,4-dinitrophenyl)amino)-3,6,9,12,15,18,21,24,27-nonaoxanonacosyl)benzamide]: the EC50 under setting [3] is below 1 nM. Further, the ADCC efficacy entry under setting [2] is “+++^e (Maximum Signal:Background > 10 = +++)”.

In the case of `Cc1ccc2c(c1)NC[C@]21CCN(C[C@@H](O)C2CCN(C(=O)c3cc4ccc(OCCOCCOCCOCCNC(=O)CCC(=O)NCCOCCOCCOCCNc5ccc([N+](=O)[O-])cc5[N+](=O)[O-])cc4[nH]3)CC2)C[C@H]1C` [Compound 13, N1-(2-(2-(2-(2-((2-(4-((S)-2-((3S,3′S)-3′,6-Dimethylspiro[indoline-3,4′-piperidin]-1′-yl)-1-hydroxyethyl)piperidine-1-carbonyl)-1H-indol-6-yl)oxy)ethoxy)ethoxy)ethoxy)ethyl)-N4-(2-(2-(2-(2-((2,4-dinitrophenyl)amino)ethoxy)ethoxy)ethoxy)ethyl)succinamide], the EC50 lay within 1 to 10 nM. In addition, under setting [2], the ADCC efficacy result is listed as “+++^e (Maximum Signal:Background > 10 = +++)”.
